The values that follow come from patent US9861735B2, “Extracorporeal perfusion apparatus” (Fresenius Medical Care Deutschland GmbH, priority 2012, dated 2018).

In one data set the test system is blood cells. Kind of data set: Cytokine batch (batch test II): cytokine distribution by blood cells. Format: cell-based. Particulars: LPS (E. coli)-spiked plasma, 4 hours incubation. The procedure: The plasma spiked with LPS and PMB is fed back following batch test 1 to the cell concentrate obtained from the blood donor in the ratio 1:1 (see Table 3.5). For the cytokine batch, the samples from batch test I were used with a PMB concentration of 0 (without PMB), 250, 500 and 1000 ng/ml. As control, a sample without LPS and with 1000 ng/ml PMB was included. Following the incubation times of 4 h and 12 h at 37° C. on a roll mixer (5 revolutions/min), samples were taken, centrifuged off and 50 μl plasma were frozen at −80° C. for the subsequent cytokine quantification.

The test system of a further data set is LPS E. coli. The experiment in a line: Endotoxin batch (batch test I), LAL test, LPS from E. coli in plasma. The class given is biochemical. As to conditions: for LAL EU/ml: plasma + 0.5 ng/ml LPS, incubation 60 min, 37° C. How it is done: (§1) 9 blood-sampling tubes (each measuring 9 ml) spiked with 5 IU heparin are removed from a donor. The plasma is centrifuged off and the cell pellet incubated on a roll mixer. The plasma is spiked with endotoxin (LPS) and used for batch test I:
(§2) The LPS is used in the batch with a final concentration 0.5 ng/ml. The tests are carried out in 3 ml pyrogen-free glass vials. In batch test I, different PMB concentrations (company. Sigma, P-1004) are added in the duplicate approach and are incubated for 60 min on an overhead shaker at 37° C. (see Table 3.5).
(§3) In batch test 1, PMB concentrations with 0 (without PMB), 10, 100, 250, 500 and 1000 ng/ml are used. Sterile PMB solutions (autoclaved pyrogen-free at 121° C., 90 min) are produced for this purpose with the following concentrations (Table 3.3):
(§4) The endotoxins are measured in the form of EU/ml with the aid of a Limulus Amebocyte Lysate test (LAL) by Charles River.

The test system of data set [1] is LPS Pseudomonas aeruginosa. The experiment in a line: Endotoxin batch (batch test I), LAL test, LPS from Pseudomonas aeruginosa in plasma. The class given is biochemical. Particulars: for LAL EU/ml: plasma + 0.5 ng/ml LPS, incubation 60 min, 37° C. The procedure: as §1
LPS: Pseudomonas aeruginosa (L-7018 company Sigma batch: 128K4115, −70° C., at 100 μl 10−3 g/ml (1 mg/ml))
as §2, §3, §4

Data set [2] can be described thus: PMB clearance (dialyser, depletion agent, patient) for dosing calculation. As to conditions: specified example. From the text: The following calculation example, besides the PMB patient clearance, also takes into consideration the clearance of a dialyser (dialysis filter) arranged in the extracorporeal blood circuit and the clearance of the carrier of the depletion agent. The calculation example presupposes an existing PMB serum concentration. This is provided by administration of a bolus prior to the start of the treatment, wherein the injection solutions described under Example 4 can be used for this purpose.
For the calculation of the dosing of polymyxin B via infusion in the extracorporeal blood circuit at a lipid feed point, the PMB clearance of the patient body, of the dialyser and of the depletion agent are taken into consideration: • The PMB dialysis clearance (CDial) can be determined experimentally and is dependent on the plasma flow and also on the dialysis filter type used. In the specified example, this is 60 ml/min. • The PMB clearance of the depletion agent (Cads) is dependent on the carrier material used and also on the filtrate flow.
The PMB total clearance (Ctotal) is given by addition from the individual PMB clearance rates. The resultant decrease of PMB is illustrated in FIG. 16. […]

Data set [3] deals with LPS (L-7018 Pseud. aerug.). The experiment in a line: PMB desorption over time: LPS inactivation by PMB-coated HPR10 in plasma (LAL test). The class given is biochemical, Pseudomonas aeruginosa. Particulars: PMB-coated HPR10 carrier, 1% in LPS-spiked plasma (5 ng/ml), 37° C. How it is done:
The PMB solution (Sigma, 10 mg/ml in dist. water) is autoclaved at 121° C. for 30 min, and the carrier (HPR10) is then coated in 15 ml Greiner tubes with PMB as follows (see Table 10.2): 3 ml carrier with 7.5 ml PMB solution
The coating is carried out overnight on a roll mixer at room temperature. The coated carrier is then washed twice with 10 ml NaCl solution (sterile), and a 50% suspension is produced. A tube without adsorber was included as control.
The plasma with 5 IU heparin is spiked with 5 ng/ml LPS (L-7018 Pseud. aerug. company Sigma batch: 128K4115). In the triplicate approach, 1% PMB-coated carrier is incubated with the LPS-spiked plasma (30 μl carrier+2970 μl LPS spiked plasma) at 37° C. in an overhead shaker and samples were taken at intervals (5, 15 and 60 min) for LAL analysis.
The analysis was performed using an LAL test.

For data set [4] the following is noted: patient, specified example; cited from earlier work.
The conditions of data set [5]: offset at least in part by the necessary higher dosing; cited from earlier work.
Where [6] appears, read: PMB concentration in the plasma 50 to 300 ng/ml (0.05 to 0.3 μg/ml).

Several values for one entry are separate records, joined by “and”; a condition that tells them apart may be missing. Equal entries are not always repeated.

For the substance polymyxin B [PMB], the “inhibition of the cytokine distribution (TNF-alpha, IL-1beta, IL-6, IL-8)” value in the data set with blood cells (very low PMB concentrations (250, 500, 1000 ng/ml)) was “strong inhibition”. For the same substance, the “inhibition of the key mediator TNF-alpha” value in the data set on blood cells (very low PMB concentrations) is recorded as “particularly pronounced”. Also, the “LAL EU/ml” value in the data set on LPS E. coli (PMB 10 ng/ml) was 0.77 EU/ml and 0.871 EU/ml; in the data set with LPS E. coli (PMB 100 ng/ml) it was 0.379 EU/ml and 0.382 EU/ml; in the data set with LPS E. coli (PMB 250 ng/ml) it was 0.281 EU/ml and 0.29 EU/ml; in the data set on LPS E. coli (PMB 500 ng/ml), 0.209 EU/ml; in the data set with LPS E. coli (PMB 1000 ng/ml) it was 0.154 EU/ml and 0.16 EU/ml; in data set [1] (PMB 10 ng/ml), 0.178 EU/ml and 0.167 EU/ml. Also, the “LAL EU/ml” value in data set [1] (PMB 100 ng/ml) is 0.112 EU/ml and 0.137 EU/ml; in data set [1] (PMB 250 ng/ml) it was 0.108 EU/ml and 0.123 EU/ml; in data set [1] (PMB 500 ng/ml) it was 0.091 EU/ml and 0.081 EU/ml; in data set [1] (PMB 1000 ng/ml), 0.062 EU/ml and 0.061 EU/ml. For the same substance, in the data set on LPS E. coli (setting [6]), the “inhibition of LPS from E. coli” value is “strong inhibition”. Also, the “inhibition of LPS from Pseudomonas aeruginosa” value in data set [1] (setting [6]) is recorded as “strong inhibition”. The “PMB clearance of the depletion agent (Cads)” value in data set [2] (dependent on carrier material and filtrate flow) was 45 mL/min. For the same substance, the “PMB dialysis clearance (CDial)” value in data set [2] (dependent on plasma flow and dialysis filter type) was 60 mL/min. In addition, in data set [3], the “LPS inactivation after 5 minutes compared with after 60 minutes of incubation” value is “almost the same”. Besides, the half-life for PMB in data set [4] was 13.6 h.
Take Colistin: the “nephrotoxicity comparison (in words)” value in data set [5] was “less nephrotoxic than polymyxin B”.
